# Source: patent US20250388583A1, “COMPOUNDS AND METHOD FOR PKMYT1 INHIBITION” (Engine Biosciences Pte. Ltd., priority 2022, published 2025)
# Columns and labels:
# PKMYT1 = PKMYT1 (Homo sapiens (Human), UniProt Q99640); assay: In vitro assay: kinase binding to immobilized ligand, captured kinase measured by qPCR
# LCK = LCK (Homo sapiens (Human), UniProt P06239); assay: as above
# Description: Example B-1: In Vitro Assay
# Compounds that bind the kinase active site and directly (sterically) or indirectly (allosterically) prevent kinase binding to an immobilized ligand and reduce the amount of kinase captured on the solid support. Screening “hits” were identified by measuring the amount of kinase captured in test versus control samples by using a quantitative, precise and ultra-sensitive qPCR method that detect the associated DNA label. In a similar manner, dissociation constants (Kd's) for test compound-kinase interactions were calculated by measuring the amount of kinase captured on the solid support as a function of the test compound concentration.
# Chain of LCK (P06239 whole entry): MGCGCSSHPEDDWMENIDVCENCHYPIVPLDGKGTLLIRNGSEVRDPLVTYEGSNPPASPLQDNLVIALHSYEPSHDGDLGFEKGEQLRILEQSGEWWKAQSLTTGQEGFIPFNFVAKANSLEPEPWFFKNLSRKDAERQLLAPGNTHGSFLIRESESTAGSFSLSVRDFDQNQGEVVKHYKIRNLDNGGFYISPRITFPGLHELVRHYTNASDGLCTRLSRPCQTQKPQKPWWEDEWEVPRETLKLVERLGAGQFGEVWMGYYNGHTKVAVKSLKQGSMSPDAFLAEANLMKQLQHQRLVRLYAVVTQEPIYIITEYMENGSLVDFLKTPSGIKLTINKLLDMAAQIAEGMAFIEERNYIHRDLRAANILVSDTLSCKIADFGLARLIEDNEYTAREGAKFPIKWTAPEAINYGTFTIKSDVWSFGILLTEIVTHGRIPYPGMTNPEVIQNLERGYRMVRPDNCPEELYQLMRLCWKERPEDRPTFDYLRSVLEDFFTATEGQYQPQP
# Chain of PKMYT1 (Q99640 whole entry): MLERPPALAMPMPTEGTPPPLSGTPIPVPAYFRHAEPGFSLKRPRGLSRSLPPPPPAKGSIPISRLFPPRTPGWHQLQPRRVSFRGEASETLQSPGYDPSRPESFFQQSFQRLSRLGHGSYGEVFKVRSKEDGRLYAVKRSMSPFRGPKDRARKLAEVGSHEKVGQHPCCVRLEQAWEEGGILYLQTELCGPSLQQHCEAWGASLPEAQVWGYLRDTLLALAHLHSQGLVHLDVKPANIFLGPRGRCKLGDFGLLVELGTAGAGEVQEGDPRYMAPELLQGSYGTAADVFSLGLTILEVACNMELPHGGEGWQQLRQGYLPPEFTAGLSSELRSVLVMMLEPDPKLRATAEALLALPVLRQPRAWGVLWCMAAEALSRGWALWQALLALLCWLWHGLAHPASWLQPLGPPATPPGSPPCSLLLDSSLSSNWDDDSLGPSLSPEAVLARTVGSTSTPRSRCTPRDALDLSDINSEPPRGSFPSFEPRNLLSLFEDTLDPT
IC50 (PKMYT1) [nM],IC50 (LCK) [nM],SMILES
< 50,< 50,"CCc1ncc2c(C(N)=O)c(N)n(-c3c(C)ccc(O)c3C)c2c1F [Compound 604, 2-amino-6-ethyl-7-fluoro-1-(3-hydroxy-2,6-dimethyl-phenyl)pyrrolo[3,2-c]pyridine-3-carboxamide]"
< 50,< 50,Cc1ccc(O)c(C)c1-n1c(N)c(C(N)=O)c2cnc(/C=C/C3CC3)nc21 [Compound 651]
< 50,< 50,"Cc1ccc(O)c(C)c1-n1c(N)c(C(N)=O)c2cnc(C3CC3)c(F)c21 [Compound 605, 2-amino-6-cyclopropyl-7-fluoro-1-(3-hydroxy-2,6-dimethylphenyl)-1H-pyrrolo[3,2-c]pyridine-3-carboxamide]"
< 50,< 50,"CCc1c(O)cc(F)c(C)c1-n1c(N)c(C(N)=O)c2cnc(C3CC3)c(C#N)c21 [Compound 673, 2-amino-7-cyano-6-cyclopropyl-1-(2-ethyl-5-fluoro-3-hydroxy-6-methyl-phenyl)pyrrolo[3,2-c]pyridine-3-carboxamide]"
> 1000,> 1000,Cc1ncc2c(C(N)=O)c(N)n(-c3c(C)cc4[nH]c(=O)oc4c3C)c2n1 [Compound 680]
< 50,< 50,Cc1ccc(O)c(C)c1-n1c(N)c(C(N)=O)c2cnc(CCc3cscn3)c(F)c21 [Compound 638]
> 1000,100 to 1000,Cc1cc2c(C(N)=O)c(N)n(-c3c(C)cc4c(c3C)OCC4)c2nc1C [Compound 675]
< 50,< 50,CCc1c(O)cc(F)c(C)c1-n1c(N)c(C(N)=O)c2cnc(C)nc21 [Compound 659]
< 50,100 to 1000,"Cc1ncc2c(C(N)=O)c(N)n(-c3c(C)cc(F)c(O)c3C)c2n1 [Compound 602, 6-amino-7-(4-fluoro-3-hydroxy-2,6-dimethyl-phenyl)-2-methyl-pyrrolo[2,3-d]pyrimidine-5-carboxamide]"
< 50,< 50,Cc1ccc(O)c(C)c1-n1c(N)c(C(N)=O)c2cnc(C3CC3)c(C#N)c21 [Compound 662]
< 50,< 50,"Cc1c(O)cc(F)c(C)c1-n1c(N)c(C(N)=O)c2cnc(C3CC3)nc21 (atropisomer, axis not shown) [Compound 656]"
< 50,< 50,Cc1ccc(O)c(C)c1-n1c(N)c(C(N)=O)c2cnc(CCc3cncs3)c(F)c21 [Compound 642]
> 1000,> 1000,"Cc1ncc2c(C(N)=O)c(N)n(-c3c(C)c(O)cc(F)c3C)c2n1 (atropisomer, axis not shown) [Compound 607, 6-amino-7-(3-fluoro-5-hydroxy-2,6-dimethyl-phenyl)-2-methyl-pyrrolo[2,3-d]pyrimidine-5-carboxamide]"
< 50,< 50,"Cc1cc(F)c(O)c(C)c1-n1c(N)c(C(N)=O)c2cc(Cl)cnc21 [Compound 603, 2-amino-5-chloro-1-(4-fluoro-3-hydroxy-2,6-dimethyl-phenyl)pyrrolo[2,3-b]pyridine-3-carboxamide]"
< 50,< 50,"Cc1c(O)cc(F)c(C)c1-n1c(N)c(C(N)=O)c2cnc(C3CC3)c(C#N)c21 [Compound 663, 2-amino-7-cyano-6-cyclopropyl-1-(3-fluoro-5-hydroxy-2,6-dimethyl-phenyl)pyrrolo[3,2-c]pyridine-3-carboxamide]"
< 50,< 50,Cc1ccc(O)c(C)c1-n1c(N)c(C(N)=O)c2cnc(CCc3nccs3)c(F)c21 [Compound 649]

# Further lines, the compound ahead of its results:
SMILES,IC50 (PKMYT1) [nM],IC50 (LCK) [nM]
"Cc1ccc(O)c(C)c1-n1c(N)c(C(N)=O)c2cncnc21 [Compound 547, 6-amino-7-(3-hydroxy-2,6-dimethylphenyl)-7H-pyrrolo [2,3-d]pyrimidine-5-carboxamide]",< 50,50 to 100
"Cc1cnc2c(c1)c(C(N)=O)c(N)n2-c1c(C)ccc(O)c1N [Compound 556, 2-amino-1-(2-amino-3-hydroxy-6-methylphenyl)-5-methyl-1H-pyrrolo[2,3-b]pyridine-3-carboxamide]",< 50,< 50
"Cc1c(O)cc(F)c(C)c1-n1c(N)c(C(N)=O)c2cncc(F)c21 [Compound 599, 2-amino-7-fluoro-1-(3-fluoro-5-hydroxy-2,6-dimethylphenyl)-1H-pyrrolo[3,2-c]pyridine-3-carboxamide]",< 50,< 50
"Cc1ccc(O)c(C)c1-n1c(N)c(C(N)=O)c2cnc(CO)nc21 [Compound 592, 6-amino-7-(3-hydroxy-2,6-dimethylphenyl)-2-(hydroxymethyl)-7H-pyrrolo[2,3-d]pyrimidine-5-carboxamide]",50 to 100,100 to 1000
"Cc1ccc(O)c(C)c1-n1c(N)c(C(N)=O)c2cnc(NC(=O)[C@@H]3CCCN3)nc21 [Compound 593, (S)-6-amino-7-(3-hydroxy-2,6-dimethylphenyl)-2-(pyrrolidine-2-carboxamido)-7H-pyrrolo[2,3-d]pyrimidine-5-carboxamide]",< 50,100 to 1000
"Cc1c(O)cc(F)c(C)c1-n1c(N)c(C(N)=O)c2cc(Cl)cnc21 [Compound 565, 2-amino-5-chloro-1-(3-fluoro-5-hydroxy-2,6-dimethylphenyl)-1H-pyrrolo[2,3-b]pyridine-3-carboxamide]",< 50,< 50
"Cc1ccc(O)c(C)c1-n1c(N)c(C(N)=O)c2cnc(NCCO)nc21 [Compound 559, 6-amino-7-(3-hydroxy-2,6-dimethylphenyl)-2-((2-hydroxyethyl)amino)-7H-pyrrolo[2,3-d]pyrimidine-5-carboxamide]",< 50,< 50
"Cc1ccc(O)c(C)c1-n1c(N)c(C(N)=O)c2cnc(-c3ccc(C(C)(C)C)cc3)nc21 [Compound 600, 6-amino-2-(4-(tert-butyl)phenyl)-7-(3-hydroxy-2,6-dimethylphenyl)-7H-pyrrolo[2,3-d]pyrimidine-5-carboxamide]",100 to 1000,100 to 1000
"Cc1c(O)cc(F)c(C)c1-n1c(N)c(C(N)=O)c2cc(Cl)cnc21 (single isomer, unassigned) [Compound 576, 2-amino-5-chloro-1-(3-fluoro-5-hydroxy-2,6-dimethylphenyl)-1H-pyrrolo[2,3-b]pyridine-3-carboxamide]",100 to 1000,100 to 1000
Cc1ncc(O)c(C)c1-n1c(N)c(C(N)=O)c2cc(Cl)cnc21 [Compound 543],< 50,100 to 1000
"Cc1cc2ccoc2c(C)c1-n1c(N)c(C(N)=O)c2cc(Cl)cnc21 [Compound 544, 2-amino-5-chloro-1-(5,7-dimethylbenzofuran-6-yl)-1H-pyrrolo[2,3-b]pyridine-3-carboxamide]",> 1000,100 to 1000
"COc1cnc(C)c(-n2c(N)c(C(N)=O)c3cc(Cl)cnc32)c1C [Compound 542, 2-amino-5-chloro-1-(5-methoxy-2,4-dimethylpyridin-3-yl)-1H-pyrrolo[2,3-b]pyridine-3-carboxamide]",> 1000,100 to 1000
"Cc1cnc2c(c1)c(C(N)=O)c(N)n2-c1c(C)ncc(O)c1C [Compound 561, 2-Amino-1-(5-hydroxy-2,4-dimethyl-3-pyridyl)-5-methyl-pyrrolo[2,3-b]pyridine-3-carboxamide]",50 to 100,100 to 1000
